Source: US20230357312A1, “Borylated Di-Peptide Amino Acid compositions for use in Boron Neutron Capture Therapy and methods thereof” (TAE Life Sciences, priority 2021, published 2023)
Converted amounts (≈) assume the structure as drawn.

Tests used:
[1] = cited from earlier work
[2] = system: CT26 xenografts; test: BNCT study, 12 or 6 minute irradiation at 5 MW; format: in vivo, BALB/c mice; details: monitored to 22 days
Procedure: Following one (1) hour of treatment time, mice were irradiated for either 12 minutes (33(A)) or 6 minutes (33(B)) at the Kyoto University Research Reactor (Kyoto, Japan) 1 set at 5 megawatts. Data are the means ± SD of 3 mice per treatment group. Tumors were measured for growth out to 22 days.

[3] = system: CT26 xenografts; test: BNCT tumor regression study, 6 minute irradiation; format: in vivo, BALB/c mice; details: 6 minutes irradiation
Procedure: In this experiment, CT26 xenografts in BALB/c mice were dosed with 400 mg/kg of BPA or 900 mg/kg of His-BPA or BPA-BPA. Following one (1) hour treatment time, mice were irradiated for 6 minutes at the Kyoto University Research Reactor (Kyoto, Japan) 1 set at 5 megawatts. Data are the means ± SD of 3 mice per treatment group. Tumors were measured for growth out to 36 days and examined for tumor presence at 40 days. BPA and control groups were sacrificed at day 18 due to excessive tumor growth.

[4] = system: FaDu cells; test: Borylated dipeptide uptake in cancer cell lines (boron by ICP-OES); format: cell-based, human; details: 2.5 mM in HBSS, 37° C., 2 hrs; FaDu: high LAT1, PEPT1 negative
Procedure: (§1) The indicated cancer cell line (A) or FaDu cells (B) were harvested from culture and washed twice with PBS. Cell lines were adjusted to 2 million cells/ml in Hanks Balanced Salt Solution (HBSS). BPA or dipeptide boron compounds were added to cells at the final concentration of 2.5 mM in HBSS and the treated cells were incubated at 37° C. 5% CO2 for 2 hrs with shaking. The cells were collected by centrifugation; washed with cold PBS twice and reconstituted in 1 ml of cold PBS. Then, 50 µl of cell suspension was removed, pelleted, and lysed using RIPA buffer and the protein concentration was determined using BCA assay. The remaining 950 µl was used for boron compounds uptake measurements using ICP-OES.
(§2) To this end, 0.5 mL of concentrated nitric acid was added to each cell pellet in a 15 mL conical tube. The tubes were capped and placed in an oven set at 80° C. for 3 hours. 2 mL of water was added’ to each sample to bring the final volume up to 2.5 mL. The boron content in each sample was then measured on an Agilent 5110 ICP-OES using an Agilent SPS4 Autosampler for sample introduction.
The data was analyzed using Agilent’s ICP Expert Software, version 7.4.2.10790. Boron was measured axially at the 249.772 nm wavelength and the internal standard Beryllium was measured axially at the 313.042 nm wavelength. Beryllium was tee-ed into the solution at 1:5 the flowrate before introduction to the spray chamber. A standard curve using 1000, 100, 10, 1 and 0 ppb of boron was used to calculate the concentration of boron in each sample. Once determined, the boron measurement for each sample was normalized to protein content and final boron uptake results were expressed as ng boron/mg protein.
In another experiment, uptake of BPA and dipeptide His-BPA was carried out in FaDu, and ASPC-1 as described in FIG. 15. […] Accordingly, the data supports the finding that borylated dipeptides may be taken up efficiently in PEPT1 or other dipeptide transporter expressing cancers. See, FIG. 16(C).
In this experiment, the uptake of several dipeptide and dipeptide analogs was carried out in FaDu and ASPC-1 cells. Normalized boron uptake was determined as in FIG. 15. […] However, several dipeptides are still taken up in PEPT1 negative FaDu cells, although to a lower extent, which further confirms the proposition that an uptake mechanism does exist in FaDu cells for these dipeptides that is not PEPT1. See, FIG. 19.

[5] = system: AsPC-1 cells; test: Uptake inhibition by PEPT1 competitive inhibitor Gly-SAR; format: cell-based, human; details: 0.8 mM test compound, with and without Gly-SAR
Procedure: (§3) In this experiment, uptake of BPA and dipeptide His-BPA (0.8 mM of each) was carried out in FaDu and ASPC-1 in the presence and absence of the indicated concentrations of PEPT1 dipeptide transporter competitive inhibitor Gly-SAR. Normalized boron uptake was determined as in FIG. 15.

[6] = system: FaDu cells; test: as above; format: cell-based, human; details: 0.8 mM test compound, with and without Gly-SAR
Procedure: as §3

[7] = system: intracranial tumor; details: BNCT, Japan, 1968; cited from earlier work
[8] = system: FaDu cells; test: Dipeptide degradation to BPA by HPLC; format: in vitro ADME, human; details: for relative conversion into BPA in the presence of cells: 2.5 mM in HBSS, 4 hrs at 37° C., FaDu cells, RP-HPLC/MS semi-quantitative
Procedure: In this experiment, to investigate whether dipeptides are converted to BPA, which is then taken up through its cognate transporter, evaluation of whether dipeptides remained intact in the tissue culture media in the presence of absence of cancer cells was made using the following protocols. Briefly, FaDu cells were harvested and counted. The cell number was adjusted to 50×10^5 / mL in the HBSS tissue culture medium using 1 mL per well. The cells were incubated at 37° C. in the 5% CO2 overnight. At the end, the supernatants were aspirated, and cells were rinsed with 1 mL PBS once. Each test article was prepared at 2.5 mM concentration in HBSS medium, and 0.4 mL was added to cells. After 4 hrs. at 37° C. the supernatants were harvested and analyzed by RP HPLC using an ACQUITY BEH C18 column 2.1 × […] (Waters) equipped with a matching guard column equilibrated with 2% aqueous acetonitrile/0.1% formic acid mobile phase. The dipeptides were separated in the gradient of 90% acetonitrile/10% water/0.1% formic acid to 20% in 6 min and identified by UV225 nm. The masses were confirmed by an online QDA mass spectrometer. Breakdown of the original dipeptide was quantitated by comparing with the control - the same dipeptide incubated in the same fashion in the absence of cells. Stabilities of BPA-BPA, Ala-BPA, and BPA-Ala were compared, and the formation of BPA was measured semi-quantitatively by RP-HPLC/MS.

[9] = system: FaDu, Detroit-562, MeWo, HCC-1954, A549 and AsPC-1 human cancer xenograft models; test: Dose escalation of boron delivery, all tested xenograft models; format: in vivo, CB17 SCID mice; details: 1000 mg/kg, 120 minutes
Procedure: Tumors were harvested 120 minutes following treatment and boron content determined by ICP-OES. Data are the means ± SD of 5 mice per treatment group.

[10] = system: T98G; test: Borylated dipeptide uptake in cancer cell lines (boron by ICP-OES); format: cell-based, human; details: 2.5 mM in HBSS, 37° C., 2 hrs
Procedure: as §1
as §2, with “2 mL of water was added’ to each sample to bring the final volume up to 2.5 mL.” left out
(§4) The data was analyzed using Agilent’s ICP Expert Software, version 7.4.2.10790. Boron was measured axially at the 249.772 nm wavelength and the internal standard Beryllium was measured axially at the 313.042 nm wavelength. […] Once determined, the boron measurement for each sample was normalized to protein content and final boron uptake results were expressed as ng boron/mg protein.

[11] = system: CT26; test: as above; format: cell-based, mouse; details: 2.5 mM in HBSS, 37° C., 2 hrs
Procedure: as §1
as §2, with “2 mL of water was added’ to each sample to bring the final volume up to 2.5 mL.” left out
as §4

[12] = Solubility; format: physicochemical
[13] = Pharmacokinetics (blood boron by ICP OES); format: in vivo, Balb/C non-tumor bearing male mice; details: tail vein injection
Procedure: In this experiment, pharmacokinetics of BPA-BPA was evaluated using the following protocols. Briefly, […] of each compound was injected in the tail vein of Balb/C non-tumor bearing male mice (5 mice per group). Blood was drawn at the following time points: 2, 5, 16, 30, 60, 120 and 240 minutes into EDTA-coated tubes. Boron concentration was measured using ICP OES following the digestion in concentrated nitric acid for 1 hour. The boron concentration was normalized to 1 mL of blood and plotted using GraphPad Prizm. The PK parameters (see, FIG. 22, Table) were obtain using PK Solver ver. 2.0 using compartmental analysis BPA-fructose was used as a reference substance.

[14] = Pharmacokinetics of BPA-BPA
From the text: Table printed on a drawing sheet, Figure 28, continued. Title: Pharmacokinetics of BPA-BPA The patent's description of the figure: FIG. 28. Pharmacokinetics of BPA-BPA. First reader's note: Continuation of Figure 28; BPA-BPA is a borylated dipeptide, BPA Fructose is the comparator formulation.

[15] = system: A431; test: Borylated dipeptide uptake in cancer cell lines (boron by ICP-OES); format: cell-based; details: 2.5 mM in HBSS, 37° C., 2 hrs
Procedure: as §1
as §2, with “2 mL of water was added’ to each sample to bring the final volume up to 2.5 mL.” left out
as §4

N[C@@H](Cc1ccc(B(O)O)cc1)C(=O)O [BPA, 4-Borono-L-phenylalanine, reference compound]
solubility ([1]; L-BPA without fructose): 1700 µg/mL (≈ 8.13 mM)
concentration achieved with fructose formulation ([1]; fructose formulation, quasi-stable solution): 30000 µg/mL
tumor growth after BNCT ([2]; 200 mg/kg, 6 minutes irradiation at 5 MW): only modest tumor inhibition
tumor growth after BNCT ([2]; 200 mg/kg, 12 minutes irradiation at 5 MW): significant and similar growth inhibition, even regression
tumor growth after BNCT ([3]; 400 mg/kg, group sacrificed by day 18): continued tumor growth
boron uptake (compared in words) [4]: to a much greater extent than His-BPA
effect of Gly-SAR on boron uptake [5]: no effect
effect of Gly-SAR on boron uptake [6]: no effect

CC(C)C[C@H](N)C(=O)N[C@@H](Cc1ccc(B(O)O)cc1)C(=O)O [Leu-BPA, Leucine-BPA]
boron uptake (compared in words) [4]: to a lower extent than BPA

sodium borocaptate [BSH]
5-year survival rate [7]: 58%

C[C@H](N)C(=O)N[C@@H](Cc1ccc(B(O)O)cc1)C(=O)O [Ala-BPA, Alanine-BPA]
relative conversion into BPA in the presence of cells [8]: Ala-BPA > BPA-BPA > BPA-Ala
boron uptake (compared in words) [4]: to a lower extent than BPA

N[C@@H](Cc1ccc(B(O)O)cc1)C(=O)N[C@@H](Cc1ccc(B(O)O)cc1)C(=O)O [BPA-BPA]
tumor growth after BNCT ([2]; 800 mg/kg, 12 minutes irradiation at 5 MW): significant and similar growth inhibition, even regression
tumor boron delivery, rank among treatments [9]: greatest boron to all tested xenografts
boron uptake compared to BPA [10]: to a similar extent
boron uptake compared to BPA [11]: to a similar extent
solubility (in words, compared to BPA) [12]: improved solubility
relative conversion into BPA in the presence of cells [8]: Ala-BPA > BPA-BPA > BPA-Ala
formation of BPA in the absence of cells ([8]; 2.5 mM, 4 hrs, media, no cells): Only trace amount of BPA
tumor growth after BNCT ([3]; 900 mg/kg, sustained out to 36 days): significant tumor regression
boron uptake (compared in words) [4]: slightly lower than the LAT1 substrate BPA
clearance (CL) compared to BPA [13]: remarkably similar
total drug exposure across time (AUC from zero to infinity) compared to BPA [13]: marginally lower
t½ beta (elimination phase) compared to BPA [13]: remarkably similar
pharmacokinetic profile ([13]; blood boron): bi-phasic pharmacokinetics
AUC (0 − t) [14]: 20463.9 µg·min/mL
AUC (0 − ∞) [14]: 29133.2 µg·min/mL
C0 [14]: 522.0 µg/mL
CL, mg/(μg/mL)/min [14]: 0.000113 mg/(μg/mL)/min
CMAX [14]: 362.83 µg/mL
boron uptake compared to BPA [15]: slightly lower than the LAT1 substrate BPA

CC(NC(=O)[C@@H](N)Cc1ccc(B(O)O)cc1)C(=O)O (stereo partly drawn) [BPA-Ala, BPA-Alanine]
relative conversion into BPA in the presence of cells [8]: Ala-BPA > BPA-BPA > BPA-Ala
boron uptake (compared in words) [4]: to a lower extent than BPA
